Measured values taken from patent US9090621B2, “Tyrosine kinase inhibitors” (Principia Biopharma Inc., priority 2013, dated 2015).

system: protein target; experiment: Reversibility of Binding (compound in solution before and after perturbation of the target, HPLC-MS/MS); settings: after denaturation with 5 M guanidine hydrochloride and digestion with trypsin
Method: The following approach was developed to differentiate compounds that form irreversible bonds with their targets, such as acrylamide compounds, from compound that bind reversibly. […] The reactions were then treated with perturbations including both denaturation with 5 M guanidine hydrochloride and digestion with trypsin, disrupting proper folding of the target. […] The concentration of compound in solution was assessed both preceding and following perturbation using high performance liquid chromatography (HPLC) coupled to tandem mass spectrometry.
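Wherever IC50 is given: Read-out is the quantity of phosphorylated substrate product formed, and IC50 reflects inhibition of Btk kinase activity.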

| Structure (SMILES) | Compound in solution in the denatured or digested state? |
| --- | --- |
| N#CC(=CC1CC1)C(=O)N1CCC[C@@H](n2cc(-c3ccc(Oc4ccccc4)cc3)c3c(N)ncnc32)C1 [Example 27, (R)-2-(3-(4-amino-5-(4-phenoxyphenyl)-7H-pyrrolo[2,3-d]pyrimidin-7-yl)piperidine-1-carbonyl)-3-cyclopropylacrylonitrile] | yes |
| C=CC(=O)N1CCC[C@@H](n2nc(-c3ccc(Oc4ccccc4)cc3)c3c(N)ncnc32)C1 [acrylamide-containing compound 1, reference compound] | depleted from solution in both the native and perturbed state |

same assay, conditions: protein target at a higher concentration than the compound; before perturbation

| Structure (SMILES) | Compound in solution in the native state? |
| --- | --- |
| N#CC(=CC1CC1)C(=O)N1CCC[C@@H](n2cc(-c3ccc(Oc4ccccc4)cc3)c3c(N)ncnc32)C1 [Example 27, (R)-2-(3-(4-amino-5-(4-phenoxyphenyl)-7H-pyrrolo[2,3-d]pyrimidin-7-yl)piperidine-1-carbonyl)-3-cyclopropylacrylonitrile] | depleted in the folded state and no |
| C=CC(=O)N1CCC[C@@H](n2nc(-c3ccc(Oc4ccccc4)cc3)c3c(N)ncnc32)C1 [acrylamide-containing compound 1, reference compound] | depleted from solution in both the native and perturbed state |

target: T1, human recombinant Btk (Homo sapiens (Human), UniProt Q06187); experiment: not given; settings: Caliper-based kinase assay; human recombinant Btk 2 nM, ATP 40 μM, peptide substrate 1 μM, room temperature 3 h
T1 sequence (Q06187 whole entry): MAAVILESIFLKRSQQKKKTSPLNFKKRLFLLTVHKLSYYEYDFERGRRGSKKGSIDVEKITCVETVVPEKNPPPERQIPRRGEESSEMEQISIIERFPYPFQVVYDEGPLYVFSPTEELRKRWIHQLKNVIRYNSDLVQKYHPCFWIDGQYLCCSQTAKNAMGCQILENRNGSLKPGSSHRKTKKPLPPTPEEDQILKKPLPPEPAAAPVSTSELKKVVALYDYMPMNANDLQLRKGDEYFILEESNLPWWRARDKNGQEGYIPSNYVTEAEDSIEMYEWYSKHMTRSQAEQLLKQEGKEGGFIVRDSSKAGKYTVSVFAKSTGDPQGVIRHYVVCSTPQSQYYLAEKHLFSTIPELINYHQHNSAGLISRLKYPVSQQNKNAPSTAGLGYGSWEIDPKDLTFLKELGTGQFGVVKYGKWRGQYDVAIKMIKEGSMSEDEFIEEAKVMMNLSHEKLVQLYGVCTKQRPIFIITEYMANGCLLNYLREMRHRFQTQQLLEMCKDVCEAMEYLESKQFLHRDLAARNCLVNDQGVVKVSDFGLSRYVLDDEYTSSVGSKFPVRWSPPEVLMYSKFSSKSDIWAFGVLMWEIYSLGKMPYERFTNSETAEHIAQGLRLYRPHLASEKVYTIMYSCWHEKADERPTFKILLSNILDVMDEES

| Structure (SMILES) | IC50 |
| --- | --- |
| CC(C)(C)C=C(C#N)C(=O)N1CCC[C@@H]1Cn1cc(-c2ccc(Oc3cccc(F)c3F)cc2)c2c(N)ncnc21 [Example 173B] | 34 nM |
| N#CC(=CC1CC1)C(=O)N1CCC[C@H]1Cn1cc(-c2ccc(Oc3ccccc3)cc2F)c2c(N)ncnc21 [Example 59B, (S)-2-(2-((4-amino-5-(2-fluoro-4-phenoxyphenyl)-7H-pyrrolo[2,3-d]pyrimidin-7-yl)methyl)pyrrolidine-1-carbonyl)-3-cyclopropylacrylonitrile] | 26 nM |
| N#CC(=CC1CC1)C(=O)N1CCCC1Cn1nc(-c2ccc(Oc3ccccc3)cc2)c2c(N)ncnc21 (centres unmarked) [Example 22B] | 2.6 nM |
| CC(C)(C)C=C(C#N)C(=O)NC1CCC(n2nc(-c3ccc(NC(=O)c4ccc(C(F)(F)F)cc4)cc3)c3c(N)ncnc32)CC1 (centres unmarked) [8 (Cpd Table 2), N-(4-(4-amino-1-((1r,4r)-4-(2-cyano-4,4-dimethylpent-2-enamido)cyclohexyl)-1H-pyrazolo[3,4-d]pyrimidin-3-yl)phenyl)-4-(trifluoromethyl)benzamide] | > 1000 nM |
| CCNC(C)(C)C=C(C#N)C(=O)N1CCCC1Cn1nc(-c2ccc(Oc3ccccc3)cc2F)c2c(N)ncnc21 (stereo in doubt) [Example 85A, (S)-2-(2-((4-amino-3-(2-fluoro-4-phenoxyphenyl)-1H-pyrazolo[3,4-d]pyrimidin-1-yl)methyl)pyrrolidine-1-carbonyl)-4-(ethylamino)-4-methylpent-2-enenitrile] | 0.4 nM |
| CC(C)(C=C(C#N)C(=O)N1CCC[C@@H](n2nc(-c3ccc(Oc4cccc(F)c4F)cc3F)c3c(N)ncnc32)C1)N1CCOCC1 [Example 162A, (R)-2-(3-(4-amino-3-(4-(2,3-difluorophenoxy)-2-fluorophenyl)-1H-pyrazolo[3,4-d]pyrimidin-1-yl)piperidine-1-carbonyl)-4-methyl-4-morpholinopent-2-enenitrile] | 0.9 nM |
| CC(C)(C)C=C(C#N)C(=O)NC1CCC(n2nc(-c3ccc(NC(=O)c4ccc(C(F)(F)F)cc4)cc3)c3c(N)ncnc32)CC1 (centres unmarked) [10 (Cpd Table 2), N-(4-(4-amino-1-((1s,4s)-4-(2-cyano-4,4-dimethylpent-2-enamido)cyclohexyl)-1H-pyrazolo[3,4-d]pyrimidin-3-yl)phenyl)-4-(trifluoromethyl)benzamide] | > 1000 nM |
| CC(C)(CNC(=O)C(C#N)=CC1CC1)Cn1nc(-c2ccc(Oc3ccccc3)cc2)c2c(N)ncnc21 [Example 67, N-(3-(4-amino-3-(4-phenoxyphenyl)-1H-pyrazolo[3,4-d]pyrimidin-1-yl)-2,2-dimethylpropyl)-2-cyano-3-cyclopropylacrylamide] | 27 nM |
| CCNC(C)(C)C=C(C#N)C(=O)N1CCCC1Cn1nc(-c2ccc(Oc3ccccc3)cc2F)c2c(N)ncnc21 (stereo in doubt) [Example 85B, (R)-2-(2-((4-amino-3-(2-fluoro-4-phenoxyphenyl)-1H-pyrazolo[3,4-d]pyrimidin-1-yl)methyl)pyrrolidine-1-carbonyl)-4-(ethylamino)-4-methylpent-2-enenitrile] | 17.2 nM |
| CCOC(C)(C)C=C(C#N)C(=O)N1CCC[C@@H](n2nc(-c3ccc(Oc4cccc(F)c4F)cc3F)c3c(N)ncnc32)C1 [Example 156A, (R)-2-(3-(4-amino-3-(4-(2,3-difluorophenoxy)-2-fluorophenyl)-1H-pyrazolo[3,4-d]pyrimidin-1-yl)piperidine-1-carbonyl)-4-ethoxy-4-methylpent-2-enenitrile] | 7.3 nM |
| CC(C)(N)C=C(C#N)C(=O)N1CCC[C@H]1Cn1nc(-c2ccc(Oc3cccc(F)c3)cc2F)c2c(N)ncnc21 [Example 72B, (S)-4-amino-2-(2-((4-amino-3-(2-fluoro-4-(3-fluorophenoxy)phenyl)-1H-pyrazolo[3,4-d]pyrimidin-1-yl)methyl)pyrrolidine-1-carbonyl)-4-methylpent-2-enenitrile] | 28 nM |
| N#CC(=CC1CC1)C(=O)N1CCC[C@@H]1Cn1nc(-c2ccc(Oc3cccc(F)c3)cc2)c2c(N)ncnc21 [Example 24A, (R)-2-(2-((4-amino-3-(4-(3-fluorophenoxy)phenyl)-1H-pyrazolo[3,4-d]pyrimidin-1-yl)methyl)pyrrolidine-1-carbonyl)-3-cyclopropylacrylonitrile] | 6.2 nM |
| NC(=O)C(=CC1CC1)C(=O)N1CCC[C@@H](n2nc(-c3ccc(Oc4c(F)cccc4F)cc3)c3c(N)ncnc32)C1 [Example 36A, (R)-2-(3-(4-amino-3-(4-(2,6-difluorophenoxy)phenyl)-1H-pyrazolo[3,4-d]pyrimidin-1-yl)piperidine-1-carbonyl)-3 cyclopropylacrylamide] | 4.3 nM |
| CC1(C=C(C#N)C(=O)N2CCC[C@H]2Cn2nc(-c3ccc(Oc4ccccc4)cc3F)c3c(N)ncnc32)COC1 [Example 197B] | 32.5 nM |
| NC(=O)C(=CC1CC1)C(=O)N1CCC[C@@H](n2nc(-c3ccc(Oc4cccc(F)c4)cc3)c3c(N)ncnc32)C1 [Example 15A, (R)-2-(3-(4-amino-3-(4-(3-fluorophenoxy)phenyl)-1H-pyrazolo[3,4-d]pyrimidin-1-yl)piperidine-1-carbonyl)-3-cyclopropylacrylamide] | 1.7 nM |

target: T1, human recombinant Btk; experiment: biochemical; settings: not given

| Structure (SMILES) | IC50 |
| --- | --- |
| N#CC(=CC1CC1)C(=O)N1CCC[C@@H]1Cn1nc(-c2ccc(Oc3c(F)cccc3F)cc2)c2c(N)ncnc21 [Example 32A, (R)-2-(2-((4-amino-3-(4-(2,6-difluorophenoxy)phenyl)-1H-pyrazolo[3,4-d]pyrimidin-1-yl)methyl)pyrrolidine-1-carbonyl)-3-cyclopropylacrylonitrile] | 1.7 nM |
| N#CC(=CC1CC1)C(=O)N1CCC[C@@H]1Cn1nc(-c2ccc(Oc3cc(F)cc(F)c3)cc2)c2c(N)ncnc21 [Example 25A, (R)-2-(2-((4-amino-3-(4-(3,5-difluorophenoxy)phenyl)-1H-pyrazolo[3,4-d]pyrimidin-1-yl)methyl)pyrrolidine-1-carbonyl)-3-cyclopropylacrylonitrile] | 9.6 nM |
| Cc1cc(Oc2ccccc2)ccc1-c1nn(C[C@H]2CCCN2C(=O)C(C#N)=CC2CC2)c2ncnc(N)c12 [Example 69A, (R)-2-(2-((4-amino-3-(2-methyl-4-phenoxyphenyl)-1H-pyrazolo[3,4-d]pyrimidin-1-yl)methyl)pyrrolidine-1-carbonyl)-3-cyclopropylacrylonitrile] | 5 nM |
| CC(C)C=C(C#N)C(=O)N1CCC[C@H]1Cn1nc(-c2ccc(Oc3c(F)cccc3F)cc2)c2c(N)ncnc21 [Example 75B, (S)-2-(2-((4-amino-3-(4-(2,6-difluorophenoxy)phenyl)-1H-pyrazolo[3,4-d]pyrimidin-1-yl)methyl)pyrrolidine-1-carbonyl)-4-methylpent-2-enenitrile] | 100 nM |
| CC(C)C=C(C#N)C(=O)N1CCC[C@H]1Cn1nc(-c2ccc(Oc3cccc(F)c3F)cc2)c2c(N)ncnc21 [Example 76B, (S)-2-(2-((4-amino-3-(4-(2,3-difluorophenoxy)phenyl)-1H-pyrazolo[3,4-d]pyrimidin-1-yl)methyl)pyrrolidine-1-carbonyl)-4-methylpent-2-enenitrile] | 7 nM |
| N#CC(=CC1CC1)C(=O)N1CCC[C@@H]1Cn1nc(-c2ccc(Oc3cc(F)cc(F)c3)cc2F)c2c(N)ncnc21 [Example 41A, (R)-2-(2-((4-amino-3-(2-fluoro-4-(3,5-difluorophenoxy)phenyl)-1H-pyrazolo[3,4-d]pyrimidin-1-yl)methyl)pyrrolidine-1-carbonyl)-3-cyclopropylacrylonitrile] | 3.2 nM |
| CC(C)C=C(C#N)C(=O)N1CCC[C@H]1Cn1nc(-c2ccc(Oc3cccc(F)c3)cc2F)c2c(N)ncnc21 [Example 73B, (S)-2-(2-((4-amino-3-(2-fluoro-4-(3-fluorophenoxy)phenyl)-1H-pyrazolo[3,4-d]pyrimidin-1-yl)methyl)pyrrolidine-1-carbonyl)-4-methylpent-2-enenitrile] | 11 nM |
| C[C@@H](Cn1nc(-c2ccc(Oc3ccccc3)cc2F)c2c(N)ncnc21)NC(=O)C(C#N)=CC(C)(C)N(C)C [Example 185B, (S)-N-(1-(4-amino-3-(2-fluoro-4-phenoxyphenyl)-1H-pyrazolo[3,4-d]pyrimidin-1-yl)propan-2-yl)-2-cyano-4-(dimethylamino)-4-methylpent-2-enamide] | 11 nM |
| N#CC(=CC1CC1)C(=O)N1CCC[C@H]1Cn1nc(-c2ccc(Oc3cc(F)cc(F)c3)cc2)c2c(N)ncnc21 [Example 25B, (S)-2-(2-((4-amino-3-(4-(3,5-difluorophenoxy)phenyl)-1H-pyrazolo[3,4-d]pyrimidin-1-yl)methyl)pyrrolidine-1-carbonyl)-3-cyclopropylacrylonitrile] | 140 nM |
| CC(C)(C)C=C(C#N)C(=O)N1CCC[C@@H](n2nc(-c3ccc(Oc4ccccc4)cc3)c3c(N)ncnc32)C1 [29 A, (R)-2-(3-(4-amino-3-(4-phenoxyphenyl)-1H-pyrazolo[3,4-d]pyrimidin-1-yl)piperidine-1-carbonyl)-4,4-dimethylpent-2-enenitrile] | 2.7 nM |
